This passage reports IC50 results from patent US20220324835A1 (Nurix Therapeutics, Inc., priority 2018, published 2022).

SMILES strings stand for the structures.

The target of assay [1] is T1, Cbl-b (Homo sapiens, UniProt Q13191). Description: Cbl-b activity assay (Cbl-b inhibition assay), TR-FRET of Cbl-b interaction with UbcH5B-Ub. The class given is biochemical. Particulars: assay buffer with 100 mM NaCl, 60 nM Src kinase; read-out: Cbl-b activity IC50. Put shortly:
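UbcH5B (C85K) conjugated to N-terminally Bodipy-Fluorescein-labeled ubiquitin served as the fluorescent partner. After compound preincubation, Src kinase (60 nM) with 1 mM ATP and 5 mM MgCl2 (final) was added for 1.5 h, followed by a further 1 h incubation. Some values were obtained with 50 mM NaCl and 30 nM Src.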
(Time-resolved FRET reads energy transfer from a long-lived donor to a nearby acceptor.)

For assay [2], the target named is T1, Cbl-b. Description: Cbl-b inhibition assay (Cbl-b activity assay, FRET, Biological Example 1; 100 mM NaCl, 60 nM Src kinase). The class given is biochemical. Conditions: upper bound stated in text lists; read-out: IC50 values in the Cbl-b inhibition assay of Biological Example 1. The text has this:
FIG. 1A and FIG. 1B show a series of diagrams depicting the activity assay utilized to assay inhibition of Cbl-b activity by a Cbl-b inhibitor. FIG. 1A: The activity assay mixture comprises an N-terminal biotinylated Avi-tagged Cbl-b, an E2 enzyme (i.e., UbcH5B) irreversibly conjugated to Bodipy-Fluorescein tagged ubiquitin (i.e., UbcH5B-Ub), a Src kinase, streptavidin-terbium, and assay buffer. Phosphorylation of Cbl-b by the Src kinase allows UbcH5B-Ub to bind to Cbl-b and bring the Bodipy-Fluorescein tagged ubiquitin in proximity to the streptavidin-terbium bound to the N-terminal biotinylated Avi-tagged Cbl-b. […] FIG. 1B: In the presence of a Cbl-b inhibitor, such as one described herein, Cbl-b is unable to bind UbcH5B-Ub. The lack of a FRET signal indicates Cbl-b is inhibited by the Cbl-b inhibitor. Ub indicates ubiquitin; N-Avi indicates biotinylated Avi-tag at the N-terminus of Cbl-b; inhibitor indicates Cbl-b inhibitor.
The lack of a FRET signal indicates Cbl-b is inhibited by the Cbl-b inhibitor. In FIG. 1A and FIG. 1B, Ub indicates ubiquitin; N-Avi indicates biotinylated Avi-tag at the N-terminus of Cbl-b; and inhibitor indicates Cbl-b inhibitor.

T1 sequence (Q13191 36-427): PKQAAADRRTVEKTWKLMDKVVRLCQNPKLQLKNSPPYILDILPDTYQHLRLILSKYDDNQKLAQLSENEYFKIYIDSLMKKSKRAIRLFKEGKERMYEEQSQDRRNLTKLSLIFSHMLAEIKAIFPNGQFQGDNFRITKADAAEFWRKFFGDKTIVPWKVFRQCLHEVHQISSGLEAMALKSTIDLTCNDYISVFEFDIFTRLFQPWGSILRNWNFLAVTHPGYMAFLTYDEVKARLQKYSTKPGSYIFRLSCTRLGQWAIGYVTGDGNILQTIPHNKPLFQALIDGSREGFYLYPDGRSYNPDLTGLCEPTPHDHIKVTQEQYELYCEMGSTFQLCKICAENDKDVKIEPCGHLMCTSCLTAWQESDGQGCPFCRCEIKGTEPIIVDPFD

As for `C[C@@H]1CN(Cc2cc3c(c(C(F)(F)F)c2)CN(c2cccc(-c4c(-c5nncn5C)cnn4C)c2)C3=O)CCO1` [Compound 524, (R)-2-(3-(l-methyl-4-(4-methyl-4H-1,2,4-triazol-3-yl)-1H-pyrazol-5-yl)phenyl)-6-((2-methylmorpholino)methyl)-4-(trifluoromethyl)isoindolin-1-one], the half-maximal inhibitory concentration (IC50) (as a rule, the concentration needed to halve the response being measured) in assay [1] is below 100 nM; in assay [2], at most 100 nM.

`C[C@@H]1CN(Cc2cc3c(c(C(F)(F)F)c2)CN(c2cccc(-c4c(-c5nncn5C)cnn4C)c2)C3=O)C[C@H](C)O1` [Compound 525, 6-(((2S,6S)-2,6-dimethylmorpholino)methyl)-2-(3-(l-methyl-4-(4-methyl-4H-1,2,4-triazol-3-yl)-1H-pyrazol-5-yl)phenyl)-4-(trifluoromethyl)isoindolin-1-one]: the half-inhibitory concentration (IC50) in assay [1] was below 100 nM; in assay [2] it was at most 100 nM.

In the case of `Cn1cnnc1CC1(c2cccc(N3Cc4c(cc(CC5CNCCC5=O)cc4C(F)(F)F)C3=O)c2)COC1` (stereo not drawn) [Compound 530, 2-(3-(3-((4-methyl-4H-1,2,4-triazol-3-yl)methyl)oxetan-3-yl)phenyl)-6-((4-oxopiperidin-3-yl)methyl)-4-(trifluoromethyl)isoindolin-1-one], the results for the IC50 in assay [1] and in assay [2] were below 100 nM and at most 100 nM, respectively.

For the compound `CC(c1cc2c(c(C(F)(F)F)c1)CN(c1cccc(C3(Cc4nncn4C)COC3)c1)C2=O)n1ccnc1` (stereo not drawn) [Compound 542, 6-(1-(1H-imidazol-1-yl)ethyl)-2-(3-(3-((4-methyl-4H-1,2,4-triazol-3-yl)methyl)oxetan-3-yl)phenyl)-4-(trifluoromethyl)isoindolin-1-one], the half-inhibitory concentration (IC50) in assay [1] is below 100 nM; in assay [2], at most 100 nM.

Turning to `CN(c1cc2c(c(C(F)(F)F)c1)CN(c1cccc([C@@](C)(F)C(F)(F)c3nncn3C)c1)C2=O)[C@H]1CNC[C@@H]1F` [Example 550, 6-(((3S,4S)-4-fluoropyrrolidin-3-yl)(methyl)amino)-2-(3-((R)-1,1,2-trifluoro-1-(4-methyl-4H-1,2,4-triazol-3-yl)propan-2-yl)phenyl)-4-(trifluoromethyl)iso-indolin-1-one], the IC50 is below 100 nM in assay [1] and at most 100 nM in assay [2].

Take `CN(c1cc2c(c(C(F)(F)F)c1)CN(c1cccc([C@@](C)(F)C(F)(F)c3nncn3C)c1)C2=O)[C@@H]1CNC[C@H]1F` [Example 551, 6-(((3R,4R)-4-fluoropyrrolidin-3-yl)(methyl)amino)-2-(3-((R)-1,1,2-trifluoro-1-(4-methyl-4H-1,2,4-triazol-3-yl)propan-2-yl)phenyl)-4-(trifluoromethyl)iso-indolin-1-one]: the values for the IC50 in assay [1] and in assay [2] were below 100 nM and at most 100 nM, respectively.

Consider `Cn1cnnc1CC1(c2cccc(N3Cc4c(cc(CN5CCC(F)CC5)cc4C4CC4)C3=O)c2)COC1` [Example 552, 4-cyclopropyl-6-((4-fluoropiperidin-1-yl)methyl)-2-(3-(3-((4-methyl-4H-1,2,4-triazol-3-yl)methyl)oxetan-3-yl)phenyl)isoindolin-1-one], for which the IC50 is below 100 nM in assay [1] and at most 100 nM in assay [2].

On to `Cn1cnnc1CC1(c2cccc(N3Cc4c(cc(C(O)C(F)(F)F)cc4C(F)(F)F)C3=O)c2)COC1` (stereo not drawn) [Example 580, 2-(3-(3-((4-Methyl-4H-1,2,4-triazol-3-yl)methyl)oxetan-3-yl)phenyl)-6-(2,2,2-trifluoro-1-hydroxyethyl)-4-(trifluoromethyl)isoindolin-1-one], for which the half-inhibitory concentration (IC50) was below 100 nM in assay [1] and at most 100 nM in assay [2].

For `Cc1cc(C(=O)Nc2cccc(C3(Cc4nncn4C)COC3)c2)n2nc(C)cc2n1` [Example 597, 2,5-dimethyl-N-(3-(3-((4-methyl-4H-1,2,4-triazol-3-yl)methyl)oxetan-3-yl)phenyl)pyrazolo[1,5-a]pyrimidine-7-carboxamide], the results for the half-inhibitory concentration (IC50) in assay [1] and in assay [2] were 100 to 300 nM and at most 300 nM, respectively.

Regarding `Cn1cnnc1CC1(c2cccc(N3Cc4c(cc(C5CCCOC5)cc4C(F)(F)F)C3=O)c2)COC1` (stereo not drawn) [Example 615, 2-(3-(3-((4-methyl-4H-1,2,4-triazol-3-yl)methyl)oxetan-3-yl)phenyl)-6-(tetrahydro-2H-pyran-3-yl)-4-(trifluoromethyl)isoindolin-1-one], the concentration for half-maximal inhibition (IC50) in assay [1] is below 100 nM; in assay [2], at most 100 nM.

Regarding `CC1=C(c2cc3c(c(C(F)(F)F)c2)CN(c2cccc(C4(Cc5nncn5C)COC4)c2)C3=O)CCO1` [Example 616, 6-(2-methyl-4,5-dihydrofuran-3-yl)-2-(3-(3-((4-methyl-4H-1,2,4-triazol-3-yl)methyl)oxetan-3-yl)phenyl)-4-(trifluoromethyl)isoindolin-1-one], the IC50 in assay [1] was below 100 nM; in assay [2], at most 100 nM.

Take `Cn1cnnc1C[C@H](c1cccc(N2Cc3c(cccc3C(F)(F)F)C2=O)c1)C(F)F` [Example 617, (R)-2-(3-(1,1-difluoro-3-(4-methyl-4H-1,2,4-triazol-3-yl)propan-2-yl)phenyl)-4-(trifluoromethyl)isoindolin-1-one]: the IC50 in assay [1] was 100 to 300 nM; in assay [2], at most 300 nM.

Regarding `Cn1cnnc1CC1(c2cccc(N3Cc4c(cc(CN5CC[C@H](F)[C@@H](F)C5)cc4C(F)(F)F)C3=O)c2)COC1` [Example 626a, 6-(((3S,4S)-3,4-difluoropiperidin-1-yl)methyl)-2-(3-(3-((4-methyl-4H-1,2,4-triazol-3-yl)methyl)oxetan-3-yl)phenyl)-4-(trifluoromethyl)isoindolin-1-one], the half-maximal inhibitory concentration (IC50) in assay [1] is below 100 nM; in assay [2] it was at most 100 nM.

`Cn1cnnc1CC1(c2cccc(N3Cc4c(cc(CN5CC[C@@H](F)[C@H](F)C5)cc4C(F)(F)F)C3=O)c2)COC1` [Example 626b, 6-(((3R,4R)-3,4-difluoropiperidin-1-yl)methyl)-2-(3-(3-((4-methyl-4H-1,2,4-triazol-3-yl)methyl)oxetan-3-yl)phenyl)-4-(trifluoromethyl)isoindolin-1-one]: the values for the IC50 in assay [1] and in assay [2] were below 100 nM and at most 100 nM, respectively.

Consider `Cn1cnnc1CC1(c2cccc(N3Cc4c(cc(CN5CCOC(C(F)F)C5)cc4C(F)(F)F)C3=O)c2)COC1` (stereo not drawn) [Example 630, 6-{[2-(difluoromethyl)morpholin-4-yl]methyl}-2-(3-{3-[(4-methyl-1,2,4-triazol-3-yl)methyl]oxetan-3-yl}phenyl)-4-(trifluoromethyl)-3H-isoindol-1-one], for which the values for the IC50 in assay [1] and in assay [2] were below 100 nM and at most 100 nM, respectively.

In the case of `Cn1cnnc1CC1(c2cccc(N3Cc4c(cc(CN5CCc6ccncc6C5)cc4C(F)(F)F)C3=O)c2)COC1` [Example 638, 6-((3,4-dihydro-2,7-naphthyridin-2(1H)-yl)methyl)-2-(3-(3-((4-methyl-4H-1,2,4-triazol-3-yl)methyl)oxetan-3-yl)phenyl)-4-(trifluoromethyl)isoindolin-1-one], the IC50 in assay [1] is below 100 nM; in assay [2], at most 100 nM.

In the case of `C[C@@H]1CCN(Cc2cc3c(c(C(F)(F)F)c2)CN(c2cccc(C4(Cc5nncn5C)COC4)c2)C3=O)C[C@@H]1F` [Example 639a, 6-(((3R,4R)-3-fluoro-4-methylpiperidin-1-yl)methyl)-2-(3-(3-((4-methyl-4H-1,2,4-triazol-3-yl)methyl)oxetan-3-yl)phenyl)-4-(trifluoromethyl)isoindolin-1-one], the IC50 is below 100 nM in assay [1] and at most 100 nM in assay [2].

In the case of `C[C@H]1CCN(Cc2cc3c(c(C(F)(F)F)c2)CN(c2cccc(C4(Cc5nncn5C)COC4)c2)C3=O)C[C@H]1F` [Example 639b, 6-(((3S,4S)-3-fluoro-4-methylpiperidin-1-yl)methyl)-2-(3-(3-((4-methyl-4H-1,2,4-triazol-3-yl)methyl)oxetan-3-yl)phenyl)-4-(trifluoromethyl)isoindolin-1-one], the IC50 in assay [1] is below 100 nM; in assay [2], at most 100 nM.

Consider `Cn1cnnc1CC1(c2cccc(N3Cc4c(cc(CN5CC6CC(C5)C6(F)F)cc4C(F)(F)F)C3=O)c2)COC1` [Example 640, 6-((6,6-difluoro-3-azabicyclo[3.1.1]heptan-3-yl)methyl)-2-(3-(3-((4-methyl-4H-1,2,4-triazol-3-yl)methyl)oxetan-3-yl)phenyl)-4-(trifluoromethyl)isoindolin-1-one], for which the IC50 is below 100 nM in assay [1] and at most 100 nM in assay [2].

Regarding `Cn1cnnc1CC1(c2cccc(N3Cc4c(cc(CN5CCc6cccnc6C5)cc4C(F)(F)F)C3=O)c2)COC1` [Example 645, 6-((5,8-dihydro-1,7-naphthyridin-7(6H)-yl)methyl)-2-(3-(3-((4-methyl-4H-1,2,4-triazol-3-yl)methyl)oxetan-3-yl)phenyl)-4-(trifluoromethyl)isoindolin-1-one], the IC50 in assay [1] is below 100 nM; in assay [2], at most 100 nM.

As for `Cn1cnnc1CC1(c2cccc(N3Cc4c(cc(CN5CCC(F)(F)C(O)C5)cc4C(F)(F)F)C3=O)c2)COC1` (stereo not drawn) [Example 647, 6-((4,4-difluoro-3-hydroxypiperidin-1-yl)methyl)-2-(3-(3-((4-methyl-4H-1,2,4-triazol-3-yl)methyl)oxetan-3-yl)phenyl)-4-(trifluoromethyl)isoindolin-1-one], the concentration for half-maximal inhibition (IC50) in assay [1] was below 100 nM; in assay [2], at most 100 nM.
